Measured values from patent US12077534B2, “Aza-heterobicyclic inhibitors of MAT2A and methods of use for treating cancer” (Les Laboratoires Servier SAS, priority 2018, dated 2024).

What was measured:
[1] = tested on: MAT2A activity (SAM) in HCT116 cells with deleted MTAP gene; experiment: Cellular assay of target engagement (SAM) by LC-MS/MS; assay type: cell-based; settings: Homo sapiens, HCT-116; HCT116 MTAP −/−, 72 hrs; read-out: Cell 72 h SAM Inhibition (MTAP −/−)
Protocol: Measurement of MAT2A activity in cells was made by direct quantitation of the abundance of the product of its enzymatic activity, SAM. Cancer cells were treated with candidate MAT2A inhibitors for a suitable incubation period, and the cells were then lysed using a reagent which quenched any further enzyme activity. Soluble metabolites including SAM were collected and SAM itself was directly measured from the lysate using quantitative LC-MS/MS.
A typical assay was performed using an HCT116 human colon carcinoma cell line which was genetically engineered to delete the MTAP gene (commercially available from Horizon Discovery). This cell line was utilized because it was determined that loss of the MTAP gene predicts sensitivity to MAT2A inhibitors. Cells were plated in 96-well dishes at appropriate cell density. Following 24 hours, cells were then treated with the candidate MAT2A inhibitor. Prior to addition to cells, the compound was first serially diluted in 100% DMSO, typically as a 3-fold serial dilution starting at 500× top dose with 10 dose points including DMSO only control. Compound was then transferred to a working stock plate in cell culture media by adding 5 μL of compound in DMSO to 495 μL of cell culture media. This working stock was then added to cells via a further 5-fold dilution, by adding 25 μL of working stock to 100 μL of cells in culture media. Following compound addition, cells were incubated at 37° C./5% CO2 for 72 hrs.
To quantitate SAM levels following compound treatment, cells were gently washed once in ammonium carbonate buffer (75 mM at pH 7.4), placed on dry ice, and lysed with metabolite extraction buffer (80% cold methanol and 20% water (v/v) with acetic acid at 1M final concentration with 200 ng/mL deuterated d3-SAM as internal control). Following centrifugation at 4° C. at 3,200 rpm for 30 minutes, the supernatant was collected and stored at −80° C. until analysis by Liquid Chromatography with tandem Mass Spectrometry (LC-MS/MS). LC-MS/MS analysis was performed using an API6500 Mass Spectrometer (Sciex, Framingham, MA, USA) operating in positive ion spray mode and equipped with a Waters UPLC Acquity (Waters, Milford, MA, USA) BEH Amide column. Multiple Reaction Monitoring data was acquired for SAM and the d3-SAM standard, using a mass transition pair at m/z 399.2→250.1 and 402.2→250.1, respectively. In a typical LC-MS/MS analysis, the initial flow rate was 0.5 ml/min of 25% mobile phase A (acetonitrile and water at 5:95 (v/v) with 1% formic acid and 10 mM ammonium acetate) and 75% mobile phase B (acetonitrile and water at 95:5 (v/v) with 1% formic acid and 10 mM ammonium acetate), 0.2-0.5 minutes with 75%-35% mobile phase B, 25%-65% mobile phase A, at 0.5 min 65% mobile phase A and 35% mobile phase B, 1.0-1.1 minutes with 35%-75% mobile phase B, 65%-25% mobile phase A, at 1.1 min 25% mobile phase A and 75% mobile phase B with a total run time of 1.5 minutes.

HCT116 MTAP+/+ = experiment: Inhibition of cellular proliferation (Cell Titer Glo), HCT116 MTAP+/+; assay type: cell-based; settings: Homo sapiens, HCT-116, 96 h, 4 days, read-out: 4 Day Relative Growth Inhibition (MTAP +/+)
Protocol: (§1) Test compound impact on cancer cell growth was assessed by treating cancer cells with compound for 4 days and then measuring proliferation using an ATP-based cell proliferation readout (Cell Titer Glo, Promega Corporation).
(§2) In a typical assay an isogenic pair of HCT116 human colon carcinoma cell lines which vary only in MTAP deletion status (HCT116 MTAP+/+ and HCT116 MTAP−/−) were plated in 96-well dishes at appropriate cell density. Following 24 hours, cells were then treated with the candidate MAT2A inhibitor. Prior to addition to cells, the compound was first serially diluted in 100% DMSO, typically as a 3-fold serial dilution starting at 500× top dose with 10 dose points including DMSO only control. Compound was then transferred to a working stock plate in cell culture media by adding 5 μL of compound in DMSO to 495 μL of cell culture media. This working stock was then added to cells via a further 5-fold dilution, by adding 25 μL of working stock to 100 μL of cells in culture media. Following compound addition, cells were incubated at 37° C./5% CO2 for 4 days.
(§3) To measure inhibition of cellular proliferation, cells were allowed to equilibrate to room temperature for 30 minutes, and were then treated with 125 μL of Cell Titer Glo reagent. The plate was then covered with aluminum foil and shaken for 15 minutes to ensure complete mixing and full cell lysis. Luminescent signal was then measured using a plate-based luminometer Veritas version 1.9.2 using ATP standard curve to confirm assay reproducibility from run to run. This luminescence measure was converted to a proliferation index by subtracting from each data point the ATP luminescence signal measured from a bank (no cells) well and dividing by the ATP luminescence signal measured in 0.2% DMSO control well adjusted for signal in blank well. Compound activity was then represented as a percentage change in proliferation relative to a within-plate DMSO control against log 10 of compound concentration in molar (M) units.

HCT116 MTAP−/− = experiment: Inhibition of cellular proliferation (Cell Titer Glo), HCT116 MTAP-/-; assay type: cell-based; settings: Homo sapiens, HCT-116, 96 h, 4 days, read-out: 4 Day Relative Growth Inhibition (MTAP −/−)
Protocol: as §1, §2, §3

MAT2A homodimer = target: T1, MAT2A homodimer (Homo sapiens, UniProt P31153); experiment: MAT2A biochemical assay (phosphate release, PiColorLock Gold); settings: recombinant MAT2A homodimer, 60 min pre-incubation, 25° C.; read-out: Enzyme Inhibition
T1 construct: inferred from Ni sepharose purification and imidazole elution; made in house; host or cells: SF9 insect cells, recombinant baculovirus (Bac to Bac, pFASTBAC1)
T1 sequence (P31153 whole entry): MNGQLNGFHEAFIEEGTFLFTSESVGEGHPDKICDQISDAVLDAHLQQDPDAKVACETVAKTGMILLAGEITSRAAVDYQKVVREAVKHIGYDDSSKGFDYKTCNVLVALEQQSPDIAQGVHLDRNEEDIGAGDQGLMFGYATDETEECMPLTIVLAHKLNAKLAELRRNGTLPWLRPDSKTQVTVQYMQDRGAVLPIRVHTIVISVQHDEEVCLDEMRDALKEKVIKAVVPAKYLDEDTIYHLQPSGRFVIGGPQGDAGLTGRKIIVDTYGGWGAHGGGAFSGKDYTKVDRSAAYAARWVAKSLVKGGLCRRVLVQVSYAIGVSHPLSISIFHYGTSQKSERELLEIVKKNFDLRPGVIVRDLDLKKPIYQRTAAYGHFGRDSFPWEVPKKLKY
Protocol: Mat2A protein was expressed by recombinant baculovirus in SF9 infected cells using the Bac to Bac system cloned into the pFASTBAC1 vector (Invitrogen, Carlsbad, CA). Recombinant MAT2A was isolated from the cell lysate of 150 g of infected cells using HP Ni sepharose column chromatography. Recombinant MAT2A homodimer was eluted with 250 and 500 mM imidazole, and fractions containing MAT2A were identified by sodium dodecyl sulfate polyacrylamide gel electrophoresis and pooled.
For determination of the inhibitory potency of compounds against the MAT2A homodimer, protein was diluted to 4 μg/mL in assay buffer (50 mM Tris, pH 8.0, 50 mM KCl, 15 mM MgCl2, 0.3 mM EDTA, 0.005% [w/v] bovine serum albumin [BSA]). Test compound was prepared in 100% dimethyl sulfoxide (DMSO) at 50× the desired final concentration. A 1 μL volume of compound dilution was added to 40 μL of enzyme dilution and the mixture was allowed to equilibrate for 60 minutes at 25° C. The enzymatic assay was initiated by the addition of 10 μL of substrate mix (500 μM ATP, pH 7.0, 400 μM L-methionine in 1× assay buffer), and the mixture was incubated for a further 60 minutes at 25° C. The reaction was halted and the liberated phosphate released by the enzyme in stoichiometric amounts by the production of S-adenosyl methionine (SAM) was measured using the PiColorLock Gold kit (Innova Biosciences, UK). Absolute product amounts were determined by comparison to a standard curve of potassium phosphate buffer, pH 8.0.

SMILES | IC50 [1] [µM] | IC50 (HCT116 MTAP+/+) [µM] | IC50 (HCT116 MTAP−/−) [µM] | IC50 (MAT2A homodimer) [µM]
Cn1cc2cc(-n3nc4ccc(OCC(F)F)nc4c(-c4ccc(C5CC5)nc4)c3=O)ccc2n1 [Example 107] | < 0.1 | ≥ 1 | < 0.1 | < 0.1
[2H]C([2H])([2H])Oc1ccc(-c2c(=O)n(-c3ccc4nn(C)cc4c3)nc3ccc(OCC(F)F)nc23)cc1 [Example 108] | < 0.1 | ≥ 1 | < 0.1 | < 0.1
Cn1cc2cc(-n3nc4ccc(OCC(F)F)nc4c(-c4ccc(OC(F)(F)F)cc4)c3=O)ccc2n1 [Example 109] | < 0.1 | ≥ 1 | < 0.1 | < 0.1
[2H]C([2H])([2H])Oc1ccc(-c2c(=O)n(-c3ccc4nn(C)cc4c3)nc3ccc(OCC)nc23)cc1 [Example 110] | < 0.1 | 0.1 to 1 | < 0.1 | < 0.1
CCCOc1ccc2nn(-c3ccc4nn(C)cc4c3)c(=O)c(-c3ccc(OC(F)F)cc3)c2n1 [Example 111] | < 0.1 | ≥ 1 | < 0.1 | < 0.1
CCOc1ccc2nn(-c3ccc(OC)cc3)c(=O)c(-c3ccc(C)nc3)c2n1 [Example 112] | 0.1 to 1 | ≥ 1 | 0.1 to 1 | < 0.1
Cn1cc2cc(-n3nc4ccc(OC5CC5)nc4c(-c4ccc(Cl)cc4)c3=O)ccc2n1 [Example 113] | < 0.1 | ≥ 1 | 0.1 to 1 | < 0.1
Cn1cc2cc(-n3nc4ccc(OCC(F)F)nc4c(-c4ccc(C5CC5)cc4)c3=O)ccc2n1 [Example 114] | < 0.1 | ≥ 1 | < 0.1 | < 0.1
CCOc1ccc2nn(-c3ccc4nn(C)cc4c3)c(=O)c(-c3ccc(OC)cc3)c2n1 [Example 115] | < 0.1 | 0.1 to 1 | < 0.1 | < 0.1
Cn1cc2cc(-n3nc4ccc(OCC(F)(F)F)nc4c(-c4ccc(Cl)cc4)c3=O)ccc2n1 [Example 116] | < 0.1 | ≥ 1 | < 0.1 | < 0.1
CCOc1ccc2nn(-c3ccc(OC)cc3)c(=O)c(-c3ccc(Cl)cc3)c2n1 [Example 117] | < 0.1 | ≥ 1 | < 0.1 | < 0.1
CCOc1ccc2nn(-c3ccc4nn(C)cc4c3)c(=O)c(-c3ccc(Cl)cc3)c2n1 [Example 119] | < 0.1 | ≥ 1 | < 0.1 | < 0.1
CCOc1ccc2nn(-c3ccc4nn(C)cc4c3)c(=O)c(-c3ccc(OC(F)F)nc3)c2n1 [Example 120] | < 0.1 | ≥ 1 | < 0.1 | < 0.1
CCOc1ccc2nn(-c3ccc4nn(C)cc4c3)c(=O)c(-c3ccc(OC(F)(F)F)nc3)c2n1 [Example 121] | < 0.1 | ≥ 1 | < 0.1 | < 0.1
CCOc1ccc2nn(-c3ccc(OC)cc3)c(=O)c(-c3ccc(OC(F)F)nc3)c2n1 [Example 122] | 0.1 to 1 | ≥ 1 | < 0.1 | < 0.1
Cn1cc2cc(-n3nc4ccc(OCC(F)(F)F)nc4c(-c4ccc(OC(F)F)cc4)c3=O)ccc2n1 [Example 123] | < 0.1 | 0.1 to 1 | < 0.1 | < 0.1
Cn1cc2cc(-n3nc4ccc(OCC(F)F)nc4c(-c4ccc(Cl)cc4)c3=O)ccc2n1 [Example 124] | < 0.1 | 0.1 to 1 | < 0.1 | < 0.1
Cn1cc2cc(-n3nc4ccc(OCC(F)F)nc4c(-c4ccc(OC(F)F)cc4)c3=O)ccc2n1 [Example 125, 6-(2,2-difluoroethoxy)-4-(4-(difluoromethoxy)phenyl)-2-(2-methyl-2H-indazol-5-yl)pyrido[3,2-c]pyridazin-3(2H)-one] | < 0.1 | 0.1 to 1 | < 0.1 | < 0.1
Cn1cc2cc(-n3nc4ccc(OCC(F)F)nc4c(-c4ccc(OC(F)F)nc4)c3=O)ccc2n1 [Example 126] | < 0.1 | ≥ 1 | < 0.1 | < 0.1
CCOc1ccc2nn(-c3ccc4nn(C)cc4c3)c(=O)c(-c3ccc(C(F)(F)F)nc3)c2n1 [Example 127] | < 0.1 | ≥ 1 | < 0.1 | < 0.1
Cn1cc2cc(-n3nc4ccc(OCC(F)F)nc4c(-c4ccc(OC(F)(F)F)nc4)c3=O)ccc2n1 [Example 128] | < 0.1 | ≥ 1 | < 0.1 | < 0.1
Cn1cc2cc(-n3nc4ccc(OCCF)nc4c(-c4ccc(OC(F)F)cc4)c3=O)ccc2n1 [Example 129] | < 0.1 | ≥ 1 | < 0.1 | < 0.1
COc1ccc(-c2c(=O)n(-c3ccc4nn(C)cc4c3)nc3ccc(OCC(F)F)nc23)cn1 [Example 130] | < 0.1 | 0.1 to 1 | < 0.1 | < 0.1
Cn1cc2cc(-n3nc4ccc(OCC5CCC5)nc4c(-c4ccc(OC(F)F)cc4)c3=O)ccc2n1 [Example 131] | 0.1 to 1 | ≥ 1 | ≥ 1 | < 0.1
Cn1cc2cc(-n3nc4ccc(OCCC(F)(F)F)nc4c(-c4ccc(OC(F)F)cc4)c3=O)ccc2n1 [Example 132] | 0.1 to 1 | ≥ 1 | 0.1 to 1 | < 0.1
